Series [1] in a line: Plasma concentration in CD-1 mouse at 100 mg/kg, po measured after 24 hrs. The class given is ADME, organism-based.
Series [2] deals with T1, Kinesin-like protein KIF18A (Homo sapiens, UniProt Q8NI77).
T1 sequence (Q8NI77 whole entry): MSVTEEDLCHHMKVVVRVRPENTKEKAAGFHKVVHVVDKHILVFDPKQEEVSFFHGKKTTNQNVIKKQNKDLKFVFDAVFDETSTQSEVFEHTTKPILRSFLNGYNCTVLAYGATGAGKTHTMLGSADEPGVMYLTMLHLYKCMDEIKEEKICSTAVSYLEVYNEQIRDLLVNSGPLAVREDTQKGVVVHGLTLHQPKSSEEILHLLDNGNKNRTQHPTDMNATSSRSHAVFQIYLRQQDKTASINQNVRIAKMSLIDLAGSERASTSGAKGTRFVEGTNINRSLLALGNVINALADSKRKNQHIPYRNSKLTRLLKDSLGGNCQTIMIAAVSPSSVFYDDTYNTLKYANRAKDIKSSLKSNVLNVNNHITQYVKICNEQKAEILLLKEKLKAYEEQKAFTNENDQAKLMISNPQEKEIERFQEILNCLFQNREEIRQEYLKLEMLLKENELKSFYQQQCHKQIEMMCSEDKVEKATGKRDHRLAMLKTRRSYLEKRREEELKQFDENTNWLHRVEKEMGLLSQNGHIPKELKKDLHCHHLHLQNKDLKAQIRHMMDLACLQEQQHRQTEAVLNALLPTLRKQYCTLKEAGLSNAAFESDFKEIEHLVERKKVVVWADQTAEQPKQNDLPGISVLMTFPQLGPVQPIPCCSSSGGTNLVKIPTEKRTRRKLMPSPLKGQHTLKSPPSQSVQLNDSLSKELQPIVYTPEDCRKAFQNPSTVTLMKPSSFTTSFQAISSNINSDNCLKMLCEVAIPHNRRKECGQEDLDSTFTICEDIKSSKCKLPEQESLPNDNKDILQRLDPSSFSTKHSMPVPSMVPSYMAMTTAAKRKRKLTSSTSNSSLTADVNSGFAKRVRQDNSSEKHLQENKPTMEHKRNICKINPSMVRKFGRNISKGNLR
In words: Inhibition of recombinant His-tagged human KIF18A (1 to 467 residues) expressed in Trichoplusia ni insect cells assessed as inhibition of microtubule-stimulated ATPase activity preincubated for 30 mins followed by ATP addition and further incubated for 15 mins by ADP-Glo reagent based assay. Also noted: species or system Insect cell. On the technique in general: ADP-Glo turns the ADP formed in a reaction into a luminescent signal.

Series [3] can be described thus: AUC (0 to 24 hrs) in CD-1 mouse xenografted with human OVCAR-3 cells at 100 mg/kg, ip by LC-MS/MS analysis. The series is classed as ADME, organism-based. Also noted: dose 100 mg/kg, route ip. Particulars: in vivo.
The nature of series [4]: Passive permeability across apical to basolateral side in dog MDCK-MDR1 cells at 5 uM. The class given is ADME, cell-based, Canis lupus familiaris. Conditions: read-out: permeability.
Series [5] concerns OVCAR-3. In words: Induction of mitotic arrest in human OVCAR-3 cells assessed as p-histone H3 incubated for 24 hrs by mitotic - imaging assay. The series is classed as functional, cell-based. Particulars: OVCAR-3, 24 h.
Series [6] is described as follows: Unbound fraction in plasma (unknown origin) by ultracentrifugation. The class given is ADME, cell-free.
Series [7] in a line: Metabolic stability in human liver microsomes assessed as intrinsic clearance at 0.5 uM incubated upto 40 mins by LCMS analysis. The series is classed as ADME, Microsome. Conditions: read-out: CLH. In general terms: Microsomes from liver hold many membrane-bound enzymes, among them those of drug oxidation.
Series [8] can be described thus: Cmax in CD-1 mouse xenografted with human OVCAR-3 cells at 100 mg/kg, po by LC-MS/MS analysis. The series is classed as ADME, organism-based. Also on record: dose 100 mg/kg, route po. Particulars: in vivo.
For series [9], the system named is OVCAR-3. In words: Antimitotic activity in human OVCAR-3 cells xenografted in CD-1 mouse assessed as increase in phospho-histone H3 positive cells in tumor at 100 mg/kg, po measured after 8 hrs. The class given is functional, organism-based. For orientation: A xenograft is tissue or cells of one species grown in another, often human tumour cells in immunodeficient mice.

The nature of series [10]: Half life in CD-1 mouse at 1 mg/kg, iv and 10 mg/kg, po. Conditions: in vivo. The series is classed as ADME, organism-based.
A short description of series [11]: Kinetic solubility of compound at pH 2. The class given is physicochemical. Conditions: buffer, read-out: Kinetic_solubility.
Series [12] relates to OVCAR-3. In words: Antimitotic activity in human OVCAR-3 cells xenografted in CD-1 mouse assessed as time prolongation of mitotic arrest per day at 100 mg/kg, po. The series is classed as functional.
A short description of series [13]: Oral bioavailability in CD-1 mouse at 10 mg/kg. The series is classed as ADME, organism-based. Particulars: in vivo.
Series [14] concerns the target T2, Kinesin-like protein KIF11 (Homo sapiens, UniProt P52732).
T2 sequence (P52732 whole entry): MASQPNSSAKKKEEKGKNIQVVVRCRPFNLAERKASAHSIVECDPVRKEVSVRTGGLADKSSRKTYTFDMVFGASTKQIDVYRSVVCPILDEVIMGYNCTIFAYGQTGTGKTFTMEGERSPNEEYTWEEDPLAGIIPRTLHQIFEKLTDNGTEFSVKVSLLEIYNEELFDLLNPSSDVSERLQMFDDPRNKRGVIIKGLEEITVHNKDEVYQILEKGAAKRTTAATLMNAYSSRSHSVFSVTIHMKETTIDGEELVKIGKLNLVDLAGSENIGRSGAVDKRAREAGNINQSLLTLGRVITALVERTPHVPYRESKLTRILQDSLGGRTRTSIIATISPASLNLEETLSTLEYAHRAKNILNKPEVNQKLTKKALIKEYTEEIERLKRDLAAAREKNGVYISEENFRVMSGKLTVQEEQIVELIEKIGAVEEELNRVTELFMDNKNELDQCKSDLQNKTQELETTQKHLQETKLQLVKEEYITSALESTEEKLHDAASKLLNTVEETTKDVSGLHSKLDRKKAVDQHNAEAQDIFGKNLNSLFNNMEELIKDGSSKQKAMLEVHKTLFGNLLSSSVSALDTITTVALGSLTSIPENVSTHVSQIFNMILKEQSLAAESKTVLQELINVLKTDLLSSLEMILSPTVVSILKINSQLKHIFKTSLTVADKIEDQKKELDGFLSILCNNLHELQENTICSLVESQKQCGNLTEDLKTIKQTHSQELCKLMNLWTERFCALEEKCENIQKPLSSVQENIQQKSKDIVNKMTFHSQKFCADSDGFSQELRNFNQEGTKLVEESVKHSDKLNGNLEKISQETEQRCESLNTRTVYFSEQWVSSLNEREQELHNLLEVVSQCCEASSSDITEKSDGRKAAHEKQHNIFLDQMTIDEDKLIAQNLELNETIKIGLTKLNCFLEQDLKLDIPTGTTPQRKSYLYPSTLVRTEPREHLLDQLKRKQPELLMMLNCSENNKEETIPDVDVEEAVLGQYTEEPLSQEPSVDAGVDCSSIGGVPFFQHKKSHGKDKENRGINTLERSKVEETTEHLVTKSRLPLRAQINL
In words: Inhibition of recombinant GST-tagged human Eg5 assessed as inhibition of microtubule-stimulated ATPase activity preincubated for 30 mins followed by ATP addition and further incubated for 15 mins by ADP-Glo reagent based assay.

The subject of series [15] is OVCAR-3. In words: Antimitotic activity in human OVCAR-3 cells xenografted in CD-1 mouse assessed as increase in phospho-histone H3 positive cells in tumor at 100 mg/kg, po measured after 24 hrs. The class given is functional, organism-based.

Converted amounts (≈) assume the structure as drawn. The source made the active and inactive calls.

The term IC50 denotes the point on the concentration scale where inhibition reaches its midpoint. What is called AUC(0-t) is the area under the concentration-time curve up to a stated or last time point. A higher AUC(0-t) goes with more exposure. Broadly, the EC50 is the concentration at which the effect is half-maximal. Broadly, the fraction unbound is the share of the substance not bound to proteins or other matrix. The low end stands for extensive binding, the high end for weak binding. In general, Cmax refers to the highest concentration seen after dosing. The half-life is the time needed for the level to fall by half in the phase considered. Low values mean rapid decline, high ones slow decline. What is called bioavailability is the share of a dose that reaches the circulation, judged against a reference dose that is usually intravenous. A lower bioavailability goes with poor availability. Molecule `CC(C)(C)NS(=O)(=O)c1cccc(NC(=O)c2ncc(NS(C)(=O)=O)nc2N2CCC3(CC2)CC3)n1` registered a concentration at 24 h in series [1] of 0.03 µM. Moreover, the figures for the IC50 in series [2] and in series [14] were 96 nM and greater than 100000 nM, respectively. In addition, in series [3], the AUC(0-t) came out at 116 µM·h. The Papp A→B at 5 µM in series [4] is less than 0.3 ×10⁻⁶ cm/s. Besides, in series [5], the EC50 was determined as 32 nM. For the same molecule, the unbound share (fraction unbound) in [6] was determined as 0.022. In series [7], the microsomal CLint at 0.5 µM amounted to 127 µL/min/mg. The molecule also had a Cmax in [8] of 6.1 µM. For the same molecule, the result in series [9] was Active. For the same molecule, the half-life in series [10] was 1.7 h. Also, in series [11], the solubility kinetic came to 500 µM (≈ 269 µg/mL). For the same molecule, in series [12], the Time entry was “>=12 hr”. This molecule also yielded a bioavailability in series [13] of 35%. The outcome in series [15] was inactive.
